One test concerns the target HLA-DRB1*0401 (Homo sapiens (Human), UniProt P01903+P01911, A100K/A169T/DEL228-266/F76Y/I96L/K127E/L162R/M171V/N62H/P40V/Q125Y/R42H/S133A/S149N/S66Y/V115G/V209L/W38E). Nature of the test: HLA-DR4 HTRF assay. It is filed as binding. To be noted: inhibition of loading of Alexa Fluor 647-labeled Cit-CII peptide onto HLA-DR4 (CLIP cleaved). The method in brief: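 HLA-DRB1*04:01 construct (α/β fused to human Fc, CLIP pre-cleaved by HRV3C overnight at 4° C) at 3 nM was preincubated 45 min with compound and 1 nM anti-Fc-Tb donor, then 40 nM Alexa647-Cit-CII1236-1249 peptide added. After 90 min at 37° C, the 665/620 nm HTRF ratio gave % inhibition; IC50 by nonlinear regression.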

The test system of test [1] is HLA-DR4 restricted mouse T cell hybridoma line (DR4.CII.36.8) with HLA-DRB1*04:01-expressing Boleth cells. Description: HLA-DR4-restricted peptide-specific T cell-based assay (hybridoma assay). The settings on record: 6 h, inhibition of IL-2 production, CII259-273 peptide presented by Boleth cells. The method in brief:
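IC50 values derive from 4-parameter logistic fits of IL-2 AlphaLISA signal over 8-point duplicate titrations. Compound and HLA-DRB1*04:01 Boleth APCs were preincubated 1 h, 37° C., before adding CII259-273-restricted DR4.CII.36.8 hybridoma cells with peptide for 6 h at 37° C., in DMEM/1% FCS.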

For test [2], the system named is human peripheral blood CD4+ helper T cells. Description: Pan-CD4+ T cell activation (off-target assay). It is filed as cell-based. The settings on record: anti-CD3/anti-CD28 stimulation, IL-2 production by ELISA. The text has this:
The counter-screening was made through an HLA-DR-independent assay (Pan-CD4+ T cell activation assay), i.e., TCR-stimulated pan-T cell activation assay, and consists of activating T cell directly with agonistic antibody targeting the T cell receptor. The lack of inhibition in the counter-screening assay reflects that the inhibition of T cell activation in the HLA-DR4 restricted peptide-specific T cell based assay with the small molecule inhibitors is due to impaired antigen presentation on HLA-DR to the T cell and not due to a direct inhibition of the T cell function by an off-target mechanism (i.e., independently of targeting HLA-DR).
Pan-CD4+ T Cell Activation
Compounds were tested using a pan-T cell activation assay. In this assay, anti-human CD3 antibody (BD Pharmingen #55336) pre-coated at 1 μg/mL to a 96-well assay plate and 1 μg/ml soluble anti-human CD28 (EBioscience #16-0289-85) antibody were used for activating human peripheral blood CD4+ helper T cells (no HLA-DR-expressing APC were present in this assay format), in the presence of compounds (or vehicle control) for 24 hrs. IL-2 production was measured in the culture supernatant by ELISA (Human IL-2 Duo Set ELISA #DY202 from R&D Systems).

For 22 compounds, IC50 results are on record in US12516038B2, “Inhibitors of antigen presentation by HLA-DR” (Janssen Pharmaceutica NV, priority 2020, dated 2026).

Structures are written as SMILES.

What is called IC50 is the midpoint of a concentration-inhibition curve. High values mean a need for much substance, low ones inhibition by little substance.

As to `NC(=O)c1ccc([C@H](Oc2ccc3c(c2)OCCC3=O)c2ccnc(C(F)(F)F)c2)cc1` (single isomer, unassigned) [Example 18b, (*S)-4-(((4-oxochroman-7-yl)oxy)(2-(trifluoromethyl)pyridin-4-yl)methyl)benzamide], the IC50 on HLA-DRB1*0401 was 0.95 µM; in test [1] (Mus musculus, T-cell), 12 µM; in test [2] (Homo sapiens, T-cell, 24 h) it was 9.9 µM.

Regarding `NC(=O)c1ccc([C@@H](Oc2ccc3c(c2)OCCC3=O)c2ccncc2C(F)(F)F)cc1` (single isomer, unassigned) [Example 19a, (*R)-4-(((4-oxochroman-7-yl)oxy)(3-(trifluoromethyl)pyridin-4-yl)methyl)benzamide], the IC50 on HLA-DRB1*0401 was determined as 0.82 µM; in test [1] (Mus musculus, T-cell), 3.6 µM; in test [2] (Homo sapiens, T-cell, 24 h) it was 1.8 µM.

For the compound `NC(=O)c1ccc([C@H](Oc2ccc3c(c2)OCCC3=O)c2ccncc2C(F)(F)F)cc1` (single isomer, unassigned) [Example 19b, (*S)-4-(((4-oxochroman-7-yl)oxy)(3-(trifluoromethyl)pyridin-4-yl)methyl)benzamide], the IC50 turned out to be 1.2 µM against HLA-DRB1*0401; 7.6 µM in test [1] (Mus musculus, T-cell); 4.7 µM in test [2] (Homo sapiens, T-cell, 24 h).

Consider `NC(=O)c1ccc([C@@H](Oc2ccc3c(c2)OCCC3=O)c2ccnc3ccccc23)cc1` (single isomer, unassigned) [Example 22a, (*R)-4-(((4-oxochroman-7-yl)oxy)(quinolin-4-yl)methyl)benzamide], for which the IC50 came to 1.3 µM against HLA-DRB1*0401; 1.9 µM in test [1] (Mus musculus, T-cell); 4.7 µM in test [2] (Homo sapiens, T-cell, 24 h).

On to `NC(=O)c1ccc([C@H](Oc2ccc3c(c2)OCCC3=O)c2ccnc3ccccc23)cc1` (single isomer, unassigned) [Example 22b, (*S)-4-(((4-oxochroman-7-yl)oxy)(quinolin-4-yl)methyl)benzamide], for which the IC50 came out at 1.2 µM against HLA-DRB1*0401; 2.2 µM in test [1] (Mus musculus, T-cell); 15 µM in test [2] (Homo sapiens, T-cell, 24 h).

`COc1cnccc1[C@@H](Oc1ccc2c(c1)OCCC2=O)c1ccc(C(N)=O)cc1` (single isomer, unassigned) [Example 23b, (*S)-4-((3-methoxypyridin-4-yl)((4-oxochroman-7-yl)oxy)methyl)benzamide]: the IC50 is 0.68 µM on HLA-DRB1*0401; 5 µM in test [1] (Mus musculus, T-cell); > 15 µM in test [2] (Homo sapiens, T-cell, 24 h).

Regarding `COc1cc([C@H](Oc2ccc3c(c2)OCCC3=O)c2ccc(C(N)=O)cc2)ccn1` (single isomer, unassigned) [Example 24a, (*R)-4-((2-methoxypyridin-4-yl)((4-oxochroman-7-yl)oxy)methyl)benzamide], the IC50 is 1.4 µM on HLA-DRB1*0401; 5.1 µM in test [1] (Mus musculus, T-cell); > 15 µM in test [2] (Homo sapiens, T-cell, 24 h).

For the compound `COc1cc([C@@H](Oc2ccc3c(c2)OCCC3=O)c2ccc(C(N)=O)cc2)ccn1` (single isomer, unassigned) [Example 24b, (*S)-4-((2-methoxypyridin-4-yl)((4-oxochroman-7-yl)oxy)methyl)benzamide], the IC50 against HLA-DRB1*0401 came out at 1.2 µM; in test [1] (Mus musculus, T-cell), 2.7 µM; in test [2] (Homo sapiens, T-cell, 24 h), 4.7 µM.

Turning to `NC(=O)c1ccc([C@H](Oc2ccc3c(c2)OCCC3=O)c2ccncc2-c2ccccc2)cc1` (single isomer, unassigned) [Example 25b, (*S)-4-(((4-oxochroman-7-yl)oxy)(3-phenylpyridin-4-yl)methyl)benzamide], the IC50 against HLA-DRB1*0401 amounted to 0.49 µM; in test [1] (Mus musculus, T-cell), 4.5 µM; in test [2] (Homo sapiens, T-cell, 24 h), 3.2 µM.

In the case of `NC(=O)c1ccc([C@@H](Oc2ccc3c(c2)OCCC3=O)c2ccnc(-c3ccccc3)c2)cc1` (single isomer, unassigned) [Example 26a, (*R)-4-(((4-oxochroman-7-yl)oxy)(2-phenylpyridin-4-yl)methyl)benzamide], the IC50 against HLA-DRB1*0401 is 64 µM; in test [1] (Mus musculus, T-cell) it was 1.1 µM; in test [2] (Homo sapiens, T-cell, 24 h), > 15 µM.

As to `NC(=O)c1ccc([C@H](Oc2ccc3c(c2)OCCC3=O)c2ccnc(-c3ccccc3)c2)cc1` (single isomer, unassigned) [Example 26b, (*S)-4-(((4-oxochroman-7-yl)oxy)(2-phenylpyridin-4-yl)methyl)benzamide], the IC50 against HLA-DRB1*0401 is 88 µM; in test [1] (Mus musculus, T-cell), 1.6 µM; in test [2] (Homo sapiens, T-cell, 24 h) it was 15 µM.

As to `NC(=O)c1ccc([C@H](Oc2ccc3c(c2)OCCC3=O)c2ccnc(N)c2)cc1` (single isomer, unassigned) [Example 28b, (*S)-4-((2-aminopyridin-4-yl)((4-oxochroman-7-yl)oxy)methyl)benzamide], the IC50 is 1.7 µM on HLA-DRB1*0401; 3.5 µM in test [1] (Mus musculus, T-cell); > 15 µM in test [2] (Homo sapiens, T-cell, 24 h).

Consider `NC(=O)c1ccc([C@H](Oc2ccc3c(c2)OCCC3=O)c2ccccc2)cc1` (single isomer, unassigned) [Example 29a, (*R)-4-(((4-oxochroman-7-yl)oxy)(phenyl)methyl)benzamide], for which the IC50 against HLA-DRB1*0401 is 1.1 µM; in test [1] (Mus musculus, T-cell) it was 2.3 µM; in test [2] (Homo sapiens, T-cell, 24 h), > 15 µM.

Regarding `NC(=O)c1ccc([C@@H](Oc2ccc3c(c2)OCCC3=O)c2ccccc2)cc1` (single isomer, unassigned) [Example 29b, (*S)-4-(((4-oxochroman-7-yl)oxy)(phenyl)methyl)benzamide], the IC50 on HLA-DRB1*0401 is 0.96 µM; in test [1] (Mus musculus, T-cell), 5 µM; in test [2] (Homo sapiens, T-cell, 24 h), > 15 µM.

As to `NC(=O)c1ccc([C@@H](Oc2ccc3c(c2)OCCC3=O)c2cccnc2)cc1` (single isomer, unassigned) [Example 31a, (*R)-4-(((4-oxochroman-7-yl)oxy)(pyridin-3-yl)methyl)benzamide], the IC50 turned out to be 0.85 µM against HLA-DRB1*0401; 5.5 µM in test [1] (Mus musculus, T-cell); 15 µM in test [2] (Homo sapiens, T-cell, 24 h).

Turning to `NC(=O)c1ccc([C@@H](Oc2ccc3c(c2)OCCC3=O)c2cccnc2)cc1` (single isomer, unassigned) [Example 31b, (*S)-4-(((4-oxochroman-7-yl)oxy)(pyridin-3-yl)methyl)benzamide], the figures for the IC50 (on HLA-DRB1*0401; in test [1]; in test [2] (24 hrs)) were 0.64 µM, 3.5 µM and > 15 µM, respectively.

For `CNC(=O)c1ccc([C@@H](Oc2ccc3c(c2)OCCC3=O)c2ccncc2)cc1` (single isomer, unassigned) [Example 34a, (*R)—N-methyl-4-(((4-oxochroman-7-yl)oxy)(pyridin-4-yl)methyl)benzamide], the IC50 on HLA-DRB1*0401 was 0.8 µM; in test [1] (Mus musculus, T-cell), 12 µM; in test [2] (Homo sapiens, T-cell, 24 h), 9.9 µM.

As for `CNC(=O)c1ccc([C@H](Oc2ccc3c(c2)OCCC3=O)c2ccncc2)cc1` (single isomer, unassigned) [Example 34b, (*S)—N-methyl-4-(((4-oxochroman-7-yl)oxy)(pyridin-4-yl)methyl)benzamide], the IC50 at HLA-DRB1*0401 was 0.69 µM; in test [1] (Mus musculus, T-cell) it was > 15 µM; in test [2] (Homo sapiens, T-cell, 24 h) it was > 15 µM.

Regarding `Cc1cc(C(N)=O)ccc1[C@H](Oc1ccc2c(c1)OCCC2=O)c1ccncc1` (single isomer, unassigned) [Example 36a, (*R)-3-methyl-4-(((4-oxochroman-7-yl)oxy)(pyridin-4-yl)methyl)benzamide], the IC50 against HLA-DRB1*0401 is 0.55 µM; in test [1] (Mus musculus, T-cell) it was 4.8 µM; in test [2] (Homo sapiens, T-cell, 24 h), 4.7 µM.

As to `N#Cc1ccc([C@H](Oc2ccc3c(c2)OCCC3=O)c2ccncc2)c2ccccc12` (single isomer, unassigned) [Example 37a, (*R)-4-(((4-oxochroman-7-yl)oxy)(pyridin-4-yl)methyl)-1-naphthonitrile], the IC50 on HLA-DRB1*0401 was found to be 33 µM; in test [1] (Mus musculus, T-cell), 9.3 µM; in test [2] (Homo sapiens, T-cell, 24 h), 2 µM.

As to `N#Cc1ccc([C@@H](Oc2ccc3c(c2)OCCC3=O)c2ccncc2)c2ccccc12` (single isomer, unassigned) [Example 37b, (*S)-4-(((4-oxochroman-7-yl)oxy)(pyridin-4-yl)methyl)-1-naphthonitrile], the IC50 at HLA-DRB1*0401 was 24 µM; in test [1] (Mus musculus, T-cell) it was 5.1 µM; in test [2] (Homo sapiens, T-cell, 24 h) it was 9.9 µM.

For the compound `O=C1CCOc2cc(O[C@@H](c3ccncc3)C3CCCCC3)ccc21` (single isomer, unassigned) [Example 38a, (*R)-7-(cyclohexyl(pyridin-4-yl)methoxy)chroman-4-one], the IC50 against HLA-DRB1*0401 was 4.6 µM; in test [1] (Mus musculus, T-cell), 4 µM; in test [2] (Homo sapiens, T-cell, 24 h), 4.7 µM.
